12 compounds from the supplement of paper PMC12592484 can be followed below.

Common to all, as to experiment: drug sensitivity score (DSS2, normalised partial AUC of dose-response, 72 h CellTiter-Glo viability) (DSS (dimensionless)); higher = more sensitive (stronger growth inhibition / cytotoxicity); extreme values may be limits of the assay
One assay deals with 22Rv1. The essentials:
(§1)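 Five doses spanning a 10,000-fold range were pre-dispensed into 384-well plates, into which low-passage primary prostate cancer-associated fibroblasts, PF179T, WPMY-1, LNCaP and 22Rv1 cells were seeded. After 72 h, CellTiter-Glo 2.0 luminescence measured viability, scaled to vehicle and positive-control wells. Higher values of the drug sensitivity score, a BREEZE-computed partial area under the fitted logistic dose–response curve divided by the log of the upper asymptote, mean greater sensitivity.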

The next assay relates to CAF#1 (primary prostate cancer-associated fibroblasts of myCAF-like type). A digest of the protocol: as §1
The next assay has as its system CAF#2 (primary prostate cancer-associated fibroblasts of iCAF-like type). A digest of the protocol: as §1
The test system of the next assay is CAF#3 (primary prostate cancer-associated fibroblasts of myCAF-like type). The essentials:
as §1

The test system of the next assay is CAF#4 (primary prostate cancer-associated fibroblasts of iCAF-like type). A digest of the protocol: as §1
Another assay concerns CAF#5 (primary prostate cancer-associated fibroblasts of myCAF-like type). The essentials: as §1
For the next assay, the system named is CAF#6 (primary prostate cancer-associated fibroblasts of iCAF-like type). A digest of the protocol:
as §1

Another assay deals with CAF#7 (primary prostate cancer-associated fibroblasts of myCAF-like type). The essentials:
as §1

The test system of the next assay is LNCAP. The essentials:
as §1

For the next assay, the system named is PF179T. The essentials:
as §1

The next assay has as its system WPMY-1. The essentials: as §1

In the case of `CN1CCN(c2nc(C3=C(c4c[nH]c5ccccc45)C(=O)NC3=O)c3ccccc3n2)CC1` [Sotrastaurin] (tested concentration range 1-10000 nM), the drug sensitivity score in the assay with 22Rv1 is 3.6; in the assay with CAF#1, 0; in the assay with CAF#2 it was 2.2; in the assay with CAF#3, 0; in the assay with CAF#4 it was 0; in the assay with CAF#5, 0. The drug sensitivity score with CAF#6 was determined as 0; in the assay on CAF#7 it was 0; in the assay with LNCAP, 3.5; in the assay on PF179T it was 0; in the assay on WPMY-1, 1.5.

With `CC(C)n1cnc2c(NCCc3ccc(O)cc3)nc(-c3csc4ccccc34)nc21` [StemRegenin 1] (tested concentration range 1-10000 nM), the drug sensitivity score was determined as 2.5 in the assay on 22Rv1; 1.5 with CAF#1; 1.7 in the assay with CAF#2; 3.5 in the assay with CAF#3; 2.6 in the assay with CAF#4; 1.7 in the assay on CAF#5. Further, the drug sensitivity score is 0.6 in the assay with CAF#6; 0 in the assay with CAF#7; 5 with LNCAP; 0 in the assay on PF179T; 2.1 in the assay with WPMY-1.

As for `CCN(CC)CCNC(=O)c1c(C)[nH]c(/C=C2\C(=O)Nc3ccc(F)cc32)c1C` [Sunitinib] (tested concentration range 0.1-1000 nM), the drug sensitivity score stood at 0.8 in the assay on 22Rv1; 0 in the assay on CAF#1; 2.5 with CAF#2; 2.8 with CAF#3; 0 in the assay on CAF#4; 0.3 in the assay with CAF#5. The drug sensitivity score with CAF#6 was 0; with CAF#7, 0; in the assay with LNCAP it was 0; in the assay on PF179T it was 0; in the assay with WPMY-1 it was 0.5.

Regarding `C[C@@H](NC(=O)c1ncnc(N)c1Cl)c1ncc(C(=O)Nc2cc(C(F)(F)F)c(Cl)cn2)s1` [TAK-580] (tested concentration range 1-10000 nM), the drug sensitivity score turned out to be 0 in the assay with 22Rv1; 0 with CAF#1; 0 in the assay on CAF#2; 0.5 in the assay with CAF#3; 2.3 in the assay on CAF#4; 0 in the assay on CAF#5. The drug sensitivity score amounted to 0 with CAF#6; 0.3 in the assay with CAF#7; 0.2 with LNCAP; 0 with PF179T; 0.5 in the assay with WPMY-1.

On to `Cc1cccc(-c2[nH]c(CNc3ccccc3F)nc2-c2ccc3ncnn3c2)n1` [TEW-7197] (tested concentration range 0.2-2500 nM), for which the drug sensitivity score in the assay with 22Rv1 is 0; in the assay with CAF#1, 0.5; in the assay with CAF#2, 0; in the assay with CAF#3, 0.5; in the assay on CAF#4 it was 0; in the assay on CAF#5 it was 0.3. For the same compound, the drug sensitivity score with CAF#6, in the assay on CAF#7, with LNCAP, in the assay on PF179T and with WPMY-1 was 0 each time.

Take `Nc1nc(NC2CC2)cc(-c2cccc(Cl)c2Cl)n1` [TH588] (tested concentration range 2.5-25000 nM): the drug sensitivity score worked out at 4.2 with 22Rv1; 2 in the assay on CAF#1; 2.7 in the assay on CAF#2; 3 with CAF#3; 2.7 in the assay with CAF#4; 1.7 with CAF#5. Besides, the drug sensitivity score was 1.9 in the assay on CAF#6; 0.5 in the assay with CAF#7; 6.5 with LNCAP; 2.8 with PF179T; 7.9 in the assay on WPMY-1.

As for `Clc1ccccc1C(c1ccccc1)(c1ccccc1)n1cccn1` [TRAM-34] (tested concentration range 0.1-1000 nM), the drug sensitivity score in the assay with 22Rv1 was determined as 0; in the assay on CAF#1, 0.8; in the assay on CAF#2, 0.1; with CAF#3, 0; in the assay with CAF#4, 0; in the assay on CAF#5 it was 0. Also, the drug sensitivity score with CAF#6, in the assay with CAF#7, with LNCAP, in the assay with PF179T and with WPMY-1 was 0 throughout.

Take `CC(=O)Nc1ccc(C(=O)Nc2ccccc2N)cc1` [Tacedinaline] (tested concentration range 0.1-1000 nM): the drug sensitivity score in the assay with 22Rv1 was found to be 0.1; in the assay with CAF#1, 1.8; in the assay on CAF#2 it was 2.3; in the assay on CAF#3, 3.3; in the assay with CAF#4 it was 0.5; in the assay on CAF#5, 2.5. Also, the drug sensitivity score came out at 0 in the assay with CAF#6; 0.6 with CAF#7; 0.6 in the assay on LNCAP; 0.9 with PF179T; 0 in the assay with WPMY-1.

`C=CC[C@@H]1/C=C(\C)C[C@H](C)C[C@H](OC)[C@H]2O[C@@](O)(C(=O)C(=O)N3CCCC[C@H]3C(=O)O[C@H](/C(C)=C/[C@@H]3CC[C@@H](O)[C@H](OC)C3)[C@H](C)[C@@H](O)CC1=O)[C@H](C)C[C@@H]2OC` [Tacrolimus] (tested concentration range 1-10000 nM): the drug sensitivity score in the assay with 22Rv1 worked out at 2.3; in the assay on CAF#1 it was 0.9; in the assay with CAF#2, 2.7; with CAF#3, 0.2; in the assay with CAF#4 it was 0; in the assay with CAF#5, 0.9. The drug sensitivity score with CAF#6 was found to be 2.3; with CAF#7, 2; in the assay on LNCAP it was 6.8; in the assay on PF179T it was 0; in the assay on WPMY-1 it was 1.

As for `Cn1ncnc1[C@H]1c2n[nH]c(=O)c3cc(F)cc(c23)N[C@@H]1c1ccc(F)cc1` [Talazoparib] (tested concentration range 0.1-1000 nM), the drug sensitivity score with 22Rv1 was 11.5; with CAF#1, 4.9; with CAF#2, 8; in the assay with CAF#3 it was 2.1; in the assay on CAF#4, 3.4; with CAF#5 it was 6.2. In addition, the drug sensitivity score with CAF#6 turned out to be 1.6; with CAF#7, 2.9; in the assay with LNCAP, 15.3; with PF179T it was 11.2; in the assay with WPMY-1, 4.

As for `C[C@@H]1CN(Cc2ccc(F)cc2)[C@@H](C)CN1C(=O)c1cc2c(C(=O)C(=O)N(C)C)cn(C)c2cc1Cl` [Talmapimod] (tested concentration range 1-10000 nM), the drug sensitivity score with 22Rv1, in the assay on CAF#1, in the assay with CAF#2, in the assay on CAF#3, in the assay on CAF#4 and in the assay on CAF#5 was 0 each time. Moreover, the drug sensitivity score was 0 in the assay on CAF#6; 0 in the assay with CAF#7; 1.9 in the assay with LNCAP; 0 in the assay on PF179T; 0 in the assay with WPMY-1.

Take `COc1cc(Nc2ncc(F)c(Nc3ccc4c(n3)NC(=O)C(C)(C)O4)n2)cc(OC)c1OC` [Tamatinib] (tested concentration range 1-10000 nM): the drug sensitivity score with 22Rv1 came out at 0; with CAF#1, 10.9; in the assay on CAF#2 it was 9.7; in the assay on CAF#3, 1.7; in the assay on CAF#4, 5.8; in the assay on CAF#5, 6.4. Besides, the drug sensitivity score came to 0.8 with CAF#6; 3.2 in the assay on CAF#7; 0.8 with LNCAP; 8 with PF179T; 6 in the assay with WPMY-1.
